In the NIST ThermoML archive (doi:10.1021/je030226s):
Numbers after ± are expanded uncertainties.

Legend:
[1] = refractive index (Na D-line) (dimensionless); xn = mol fraction of the nth substance listed; details: 101.32 kPa, Liquid
[2] = xn = mol fraction of the nth substance listed; details: 101.32 kPa, Liquid

CCCCCl [1-chlorobutane] + CCCCO
Details	mass density, 288.15 K [kg/m3]	mass density, 298.15 K [kg/m3]	mass density, 308.15 K [kg/m3]	refractive index, 288.15 K	refractive index, 298.15 K	refractive index, 308.15 K	viscosity, 288.15 K [mPa·s]	viscosity, 298.15 K [mPa·s]	viscosity, 308.15 K [mPa·s]
[1], x2 = 0	–	–	–	1.4045 ± 0.0006	1.3993 ± 0.0006	1.3941 ± 0.0006	–	–	–
[1], x2 = 0.05	–	–	–	1.4041 ± 0.0006	1.3989 ± 0.0006	1.3936 ± 0.0006	–	–	–
[1], x2 = 0.1	–	–	–	1.4039 ± 0.0006	1.3987 ± 0.0006	1.3934 ± 0.0006	–	–	–
[1], x2 = 0.2	–	–	–	1.4035 ± 0.0006	1.3984 ± 0.0006	1.3932 ± 0.0006	–	–	–
[1], x2 = 0.3	–	–	–	1.4031 ± 0.0006	1.3982 ± 0.0006	1.3931 ± 0.0006	–	–	–
[1], x2 = 0.4	–	–	–	1.4029 ± 0.0006	1.3981 ± 0.0006	1.3931 ± 0.0006	–	–	–
[1], x2 = 0.5	–	–	–	1.4027 ± 0.0006	1.398 ± 0.0006	1.3932 ± 0.0006	–	–	–
[1], x2 = 0.6	–	–	–	1.4024 ± 0.0006	1.3979 ± 0.0006	1.3932 ± 0.0006	–	–	–
[1], x2 = 0.7	–	–	–	1.4022 ± 0.0006	1.3978 ± 0.0006	1.3933 ± 0.0006	–	–	–
[1], x2 = 0.8	–	–	–	1.4019 ± 0.0006	1.3977 ± 0.0006	1.3933 ± 0.0006	–	–	–
[1], x2 = 0.9	–	–	–	1.4016 ± 0.0006	1.3975 ± 0.0006	1.3933 ± 0.0006	–	–	–
[1], x2 = 0.95	–	–	–	1.4013 ± 0.0006	1.3974 ± 0.0006	1.3933 ± 0.0006	–	–	–
[2], x2 = 0	892.2 ± 0.6	881 ± 0.7	869.7 ± 0.7	–	–	–	0.472 ± 0.009	0.423 ± 0.008	0.382 ± 0.008
[2], x2 = 0.05	888 ± 0.6	876.9 ± 0.7	865.7 ± 0.7	–	–	–	0.49 ± 0.009	0.437 ± 0.008	0.388 ± 0.008
[2], x2 = 0.1	884.3 ± 0.7	873.3 ± 0.7	862.3 ± 0.7	–	–	–	0.506 ± 0.009	0.453 ± 0.008	0.41 ± 0.008
[2], x2 = 0.2	877 ± 0.7	866.3 ± 0.7	855.5 ± 0.7	–	–	–	0.569 ± 0.009	0.499 ± 0.009	0.442 ± 0.008
[2], x2 = 0.3	869.7 ± 0.7	859.4 ± 0.7	848.9 ± 0.8	–	–	–	0.655 ± 0.01	0.569 ± 0.009	0.497 ± 0.009
[2], x2 = 0.4	862.4 ± 0.7	852.4 ± 0.7	842.2 ± 0.8	–	–	–	0.781 ± 0.011	0.665 ± 0.01	0.57 ± 0.009
[2], x2 = 0.5	854.9 ± 0.7	845.3 ± 0.8	835.4 ± 0.8	–	–	–	0.953 ± 0.013	0.798 ± 0.011	0.676 ± 0.01
[2], x2 = 0.6	847.3 ± 0.8	838 ± 0.8	828.6 ± 0.8	–	–	–	1.196 ± 0.015	0.977 ± 0.013	0.81 ± 0.011
[2], x2 = 0.7	839.4 ± 0.8	830.5 ± 0.8	821.5 ± 0.8	–	–	–	1.528 ± 0.018	1.221 ± 0.015	1 ± 0.013
[2], x2 = 0.8	831.2 ± 0.8	822.7 ± 0.8	814.1 ± 0.9	–	–	–	1.979 ± 0.023	1.563 ± 0.019	1.251 ± 0.015
[2], x2 = 0.9	822.6 ± 0.8	814.5 ± 0.9	806.3 ± 0.9	–	–	–	2.601 ± 0.03	2.019 ± 0.024	1.584 ± 0.019
[2], x2 = 0.95	818.1 ± 0.8	810.3 ± 0.9	802.3 ± 0.9	–	–	–	2.966 ± 0.034	2.328 ± 0.027	1.784 ± 0.021
